A word on the EC50: it is the concentration that produces a half-maximal response. By AC50 is commonly meant the concentration giving half of the maximal activity seen. Broadly, the IC50 is the concentration that inhibits the measured activity by half.

Experiment [1] in a line: Luminescence Cell-Based Dose Confirmation HTS to Identify Activators of 5'UTR Stem-Loop Driven Alpha-Synuclein mRNA Translation in H4 Neuroglioblastoma Cells. [Related pubchem assays: 1829 (Project Summary), 1814 (Primary HTS)]. The class given is functional.
A further experiment deals with H4. Kind of experiment: Luminescence Cell-Based Dose Response HTS to Identify Activators of 5'UTR Stem-Loop Driven Prion Protein mRNA Translation in H4 Neuroglioblastoma Cells. [Related pubchem assays: 1829 (Project Summary), 1814 (Primary HTS)]. The class given is functional. The settings on record: Homo sapiens.
Experiment [2] in a line: Luminescence Cell-Based Dose Response HTS to Identify Activators of Luciferase Translation or Activity in H4 […] Cells. [Related pubchem assays: 1829 (Project Summary), 1814 (Primary HTS)]. The class given is functional.
The next experiment deals with Cytochrome P450 2C19 (Homo sapiens, UniProt P33261). Kind of experiment: Cytochrome panel assay with activity outcomes. Panel member name: p450-cyp2c19 Compounds with AC50 equal or less than 10 uM are considered active. The class given is functional. The note with it: read-out: AC50.
Sequence of Cytochrome P450 2C19 (P33261 whole entry): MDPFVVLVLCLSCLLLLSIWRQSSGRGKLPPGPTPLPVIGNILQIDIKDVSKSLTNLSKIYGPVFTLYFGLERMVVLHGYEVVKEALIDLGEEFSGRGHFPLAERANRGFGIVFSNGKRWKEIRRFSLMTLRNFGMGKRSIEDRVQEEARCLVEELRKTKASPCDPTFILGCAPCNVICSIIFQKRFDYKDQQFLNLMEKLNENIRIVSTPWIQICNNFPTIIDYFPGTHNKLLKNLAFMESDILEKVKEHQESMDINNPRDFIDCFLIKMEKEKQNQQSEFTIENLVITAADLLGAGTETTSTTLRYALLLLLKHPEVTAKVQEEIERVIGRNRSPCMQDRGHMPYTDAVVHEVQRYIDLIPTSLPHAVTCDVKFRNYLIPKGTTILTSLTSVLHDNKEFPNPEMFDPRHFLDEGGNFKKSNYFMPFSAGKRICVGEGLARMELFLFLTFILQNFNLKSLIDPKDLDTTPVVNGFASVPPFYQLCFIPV
The target in the next experiment is Cytochrome P450 3A4 (Homo sapiens, UniProt P08684).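 Further: CYP3A4 tested as one member of a cytochrome P450 panel screen.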
Sequence of Cytochrome P450 3A4 (P08684 whole entry, the tested form may be a part): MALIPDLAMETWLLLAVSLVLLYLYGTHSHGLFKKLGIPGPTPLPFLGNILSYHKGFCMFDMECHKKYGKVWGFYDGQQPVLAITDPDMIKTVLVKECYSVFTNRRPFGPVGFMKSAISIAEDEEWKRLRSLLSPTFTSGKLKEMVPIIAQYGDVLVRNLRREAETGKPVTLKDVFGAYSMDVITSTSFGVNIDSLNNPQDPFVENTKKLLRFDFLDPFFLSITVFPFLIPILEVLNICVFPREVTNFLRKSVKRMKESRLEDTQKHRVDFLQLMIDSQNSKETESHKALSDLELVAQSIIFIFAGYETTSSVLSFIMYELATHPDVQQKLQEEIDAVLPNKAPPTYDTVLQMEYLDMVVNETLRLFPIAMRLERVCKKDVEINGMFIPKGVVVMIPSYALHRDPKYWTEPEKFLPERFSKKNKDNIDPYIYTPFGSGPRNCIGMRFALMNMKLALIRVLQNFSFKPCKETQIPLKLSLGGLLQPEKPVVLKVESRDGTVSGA
For experiment [3], the target named is T1, Carboxy-terminal domain RNA polymerase II polypeptide A small phosphatase 1 (Homo sapiens, UniProt Q9GZU7).
T1 sequence (Q9GZU7 whole entry): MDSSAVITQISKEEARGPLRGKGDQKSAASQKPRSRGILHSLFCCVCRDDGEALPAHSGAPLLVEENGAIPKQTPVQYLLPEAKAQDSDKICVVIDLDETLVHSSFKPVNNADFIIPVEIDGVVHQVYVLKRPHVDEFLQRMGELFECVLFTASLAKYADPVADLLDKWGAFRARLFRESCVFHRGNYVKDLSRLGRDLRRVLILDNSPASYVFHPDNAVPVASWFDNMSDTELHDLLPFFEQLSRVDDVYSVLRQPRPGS
In words: CTDSP1 inhibitors, concentration-response, biochemical, absorbance readout, ultra-high-throughput screen actives (AID 540297). The class given is functional.

Experiment [4] deals with T2, Fatty acid synthase (Homo sapiens, UniProt P49327). In words: inhibition of human FAS-TE enzyme activity – biochemical, endpoint fluorescence intensity, uHTS hits, dose response (AID 624327).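 Further: fluorescence from hydrolysis of an O-methyl fluorescein acyl ester substrate by the enzyme.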 The experiment is classed as functional.
T2 sequence (P49327 whole entry): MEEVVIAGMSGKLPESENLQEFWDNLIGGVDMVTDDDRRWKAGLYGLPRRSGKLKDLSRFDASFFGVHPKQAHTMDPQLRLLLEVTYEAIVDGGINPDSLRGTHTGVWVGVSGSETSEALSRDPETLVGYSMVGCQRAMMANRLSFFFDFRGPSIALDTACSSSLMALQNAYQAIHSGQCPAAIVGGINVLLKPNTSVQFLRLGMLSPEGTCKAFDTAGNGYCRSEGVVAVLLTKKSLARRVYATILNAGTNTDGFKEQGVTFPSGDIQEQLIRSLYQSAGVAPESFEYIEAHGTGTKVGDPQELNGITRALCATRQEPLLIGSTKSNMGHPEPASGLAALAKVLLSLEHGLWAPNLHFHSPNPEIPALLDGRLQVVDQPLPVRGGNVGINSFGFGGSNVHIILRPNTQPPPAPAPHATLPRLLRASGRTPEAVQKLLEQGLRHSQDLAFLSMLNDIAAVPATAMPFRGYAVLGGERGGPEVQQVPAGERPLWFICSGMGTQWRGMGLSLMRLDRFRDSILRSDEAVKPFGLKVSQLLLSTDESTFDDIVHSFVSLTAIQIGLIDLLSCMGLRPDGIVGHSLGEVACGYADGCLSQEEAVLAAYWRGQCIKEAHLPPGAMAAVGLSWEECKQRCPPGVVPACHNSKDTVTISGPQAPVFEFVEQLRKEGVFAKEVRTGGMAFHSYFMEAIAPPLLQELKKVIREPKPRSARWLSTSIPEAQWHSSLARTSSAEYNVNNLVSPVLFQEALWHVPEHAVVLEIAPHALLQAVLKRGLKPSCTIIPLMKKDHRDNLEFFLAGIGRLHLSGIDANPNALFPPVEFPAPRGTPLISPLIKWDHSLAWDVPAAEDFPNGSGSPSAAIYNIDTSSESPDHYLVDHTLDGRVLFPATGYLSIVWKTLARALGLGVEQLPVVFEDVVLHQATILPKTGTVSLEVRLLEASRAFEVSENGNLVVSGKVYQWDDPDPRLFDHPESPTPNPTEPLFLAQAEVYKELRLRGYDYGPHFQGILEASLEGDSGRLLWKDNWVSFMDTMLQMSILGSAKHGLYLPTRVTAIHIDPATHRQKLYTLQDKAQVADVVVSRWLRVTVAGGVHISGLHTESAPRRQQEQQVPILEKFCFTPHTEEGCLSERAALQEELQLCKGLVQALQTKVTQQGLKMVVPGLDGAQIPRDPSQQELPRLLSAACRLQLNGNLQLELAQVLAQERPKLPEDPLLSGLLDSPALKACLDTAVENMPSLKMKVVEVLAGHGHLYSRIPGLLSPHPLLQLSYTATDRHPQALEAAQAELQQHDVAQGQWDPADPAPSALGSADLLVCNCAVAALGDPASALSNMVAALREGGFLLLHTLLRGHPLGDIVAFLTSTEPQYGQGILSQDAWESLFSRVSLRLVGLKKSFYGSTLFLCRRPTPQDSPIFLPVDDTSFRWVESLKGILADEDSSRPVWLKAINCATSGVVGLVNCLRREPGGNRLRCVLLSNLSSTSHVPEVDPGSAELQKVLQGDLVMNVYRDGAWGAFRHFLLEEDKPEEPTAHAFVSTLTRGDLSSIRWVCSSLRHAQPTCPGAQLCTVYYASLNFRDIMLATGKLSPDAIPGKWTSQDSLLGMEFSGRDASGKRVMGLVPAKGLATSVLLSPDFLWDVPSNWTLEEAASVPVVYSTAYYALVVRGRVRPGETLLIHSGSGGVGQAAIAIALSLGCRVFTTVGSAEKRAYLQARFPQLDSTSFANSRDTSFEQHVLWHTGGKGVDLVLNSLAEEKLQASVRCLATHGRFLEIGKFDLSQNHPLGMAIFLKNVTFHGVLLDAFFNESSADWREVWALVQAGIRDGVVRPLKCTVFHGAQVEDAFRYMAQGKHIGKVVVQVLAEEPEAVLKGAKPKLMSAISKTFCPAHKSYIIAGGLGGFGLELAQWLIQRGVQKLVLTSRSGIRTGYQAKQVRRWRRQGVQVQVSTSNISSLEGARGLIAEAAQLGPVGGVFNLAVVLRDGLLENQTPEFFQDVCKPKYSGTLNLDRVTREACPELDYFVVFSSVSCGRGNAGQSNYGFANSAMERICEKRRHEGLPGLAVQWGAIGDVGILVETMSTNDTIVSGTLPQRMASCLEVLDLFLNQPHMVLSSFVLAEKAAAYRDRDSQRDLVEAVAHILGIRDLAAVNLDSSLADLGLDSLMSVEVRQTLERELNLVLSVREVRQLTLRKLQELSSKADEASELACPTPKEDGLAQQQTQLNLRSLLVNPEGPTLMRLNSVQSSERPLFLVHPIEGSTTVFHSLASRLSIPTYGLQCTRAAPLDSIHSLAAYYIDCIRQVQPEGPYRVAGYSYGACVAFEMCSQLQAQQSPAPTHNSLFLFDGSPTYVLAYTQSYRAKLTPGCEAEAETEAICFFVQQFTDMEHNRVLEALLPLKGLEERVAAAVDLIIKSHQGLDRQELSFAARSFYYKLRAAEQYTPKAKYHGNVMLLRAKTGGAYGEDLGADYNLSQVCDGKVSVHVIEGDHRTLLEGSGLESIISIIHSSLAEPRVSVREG
Experiment [5] deals with T2, Fatty acid synthase. In words: inhibition of human FAS-TE enzyme activity – biochemical, kinetic fluorescence intensity, dose response (AID 624326).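 Further: rate of fluorescence rise from hydrolysis of a fluorogenic O-methyl fluorescein ester substrate.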 The class given is functional.
A short description of experiment [6]: Luminescence Cell-Based Dose Confirmation HTS to Identify Inhibitors of Platelet Dense Granule Release. [Related pubchem assays: 1663 (Primary HTS), 1678 (Summary of Project)]. The class given is functional.
For experiment [7], the target named is Luciferin 4-monooxygenase (Photinus pyralis, UniProt P08659). In words: inhibition of purified Photinus pyralis luciferase – biochemical, luminescence, dose response (AID 1891).
Sequence of Luciferin 4-monooxygenase (P08659 whole entry): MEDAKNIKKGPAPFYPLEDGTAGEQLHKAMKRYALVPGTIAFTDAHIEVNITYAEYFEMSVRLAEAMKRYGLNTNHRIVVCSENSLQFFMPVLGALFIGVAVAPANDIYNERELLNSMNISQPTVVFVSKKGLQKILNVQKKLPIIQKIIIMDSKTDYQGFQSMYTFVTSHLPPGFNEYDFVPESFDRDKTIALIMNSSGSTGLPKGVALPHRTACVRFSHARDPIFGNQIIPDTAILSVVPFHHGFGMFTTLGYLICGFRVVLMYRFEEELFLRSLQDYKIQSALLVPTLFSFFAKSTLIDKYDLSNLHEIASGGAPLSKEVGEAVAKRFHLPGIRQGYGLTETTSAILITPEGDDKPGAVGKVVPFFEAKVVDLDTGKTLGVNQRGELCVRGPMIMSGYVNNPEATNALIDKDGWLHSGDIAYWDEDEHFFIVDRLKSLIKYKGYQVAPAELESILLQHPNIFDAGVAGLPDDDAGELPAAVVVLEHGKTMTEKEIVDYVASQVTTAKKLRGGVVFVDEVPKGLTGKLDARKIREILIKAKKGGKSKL
The target of experiment [8] is T3, Calpain-2 catalytic subunit (Sus scrofa, UniProt P43367).
T3 sequence (P43367 whole entry): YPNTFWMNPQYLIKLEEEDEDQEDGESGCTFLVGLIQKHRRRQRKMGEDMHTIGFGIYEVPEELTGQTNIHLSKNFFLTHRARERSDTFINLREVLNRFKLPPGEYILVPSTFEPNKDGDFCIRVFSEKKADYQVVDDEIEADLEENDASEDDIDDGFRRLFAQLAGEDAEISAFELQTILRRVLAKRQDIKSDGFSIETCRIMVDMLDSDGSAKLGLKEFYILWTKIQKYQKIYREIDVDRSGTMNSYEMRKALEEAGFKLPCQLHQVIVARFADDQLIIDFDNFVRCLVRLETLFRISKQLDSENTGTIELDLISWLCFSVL
Kind of experiment: m-calpain protease blockers, concentration series – biochemical, fluorogenic peptide substrate, dose response (AID 1420). The experiment is classed as functional.

Experiment [9] addresses T4, Heat shock factor protein 1 (Mus musculus, UniProt P38532).
T4 sequence (P38532 whole entry): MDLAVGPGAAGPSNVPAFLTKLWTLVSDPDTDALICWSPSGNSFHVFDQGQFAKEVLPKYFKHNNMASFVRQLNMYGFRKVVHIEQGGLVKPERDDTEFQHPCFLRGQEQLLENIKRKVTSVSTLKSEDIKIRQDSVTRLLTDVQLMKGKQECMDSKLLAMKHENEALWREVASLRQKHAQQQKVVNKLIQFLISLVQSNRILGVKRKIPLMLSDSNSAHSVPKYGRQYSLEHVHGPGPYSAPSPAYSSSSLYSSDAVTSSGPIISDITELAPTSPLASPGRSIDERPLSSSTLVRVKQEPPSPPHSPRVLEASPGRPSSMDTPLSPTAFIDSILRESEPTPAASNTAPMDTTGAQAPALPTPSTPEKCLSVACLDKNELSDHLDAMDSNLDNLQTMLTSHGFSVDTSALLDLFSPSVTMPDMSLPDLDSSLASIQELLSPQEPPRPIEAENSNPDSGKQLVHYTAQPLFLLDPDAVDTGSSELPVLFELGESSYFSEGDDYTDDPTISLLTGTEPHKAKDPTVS
In words: enhancement of HSF1-driven luciferase signal – cell-based, NIH3T3, luminescence, dose retest, confirmation (AID 435004).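 Further: stress induced by proteasome inhibitor MG132 added 30 min after compound; luciferase reporter driven by HSF1 response element in NIH3T3 cells; actives raise luminescence as potentiators of the MG132 stress response.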 The experiment is classed as functional.

Active and inactive are the calls of the source.

On to `O=C(CSc1nnnn1-c1ccc(Cl)cc1)NC(=O)Nc1ccc2c(c1)OCCO2`, for which the EC50 is > 120 µM (not active) in experiment [1], 10.1 µM (active) in the experiment on H4 and 45.7 µM (active) in experiment [2].

For the molecule `CCc1ccc(NC(=O)C[S+]([O-])CC(=O)NCCCc2ccccc2)cc1` (stereo not drawn), the AC50 was 11.2 µM (inconclusive) on Cytochrome P450 2C19 and 2.82 µM (inconclusive) on Cytochrome P450 3A4. The concentration for half-maximal inhibition (IC50) in experiment [3] is 7.62 µM (active).

Turning to `C=CCNc1nc(C(=O)OCC(=O)c2cccc(Br)c2)cs1`, the IC50 in experiment [3] was 4 µM (active).

Turning to `O=C(CN1C(=O)NC2(CCCCCC2)C1=O)Nc1ccc(Cl)c([N+](=O)[O-])c1`, the half-inhibitory concentration (IC50) on Fatty acid synthase [4] was 8.92 µM (active); on Fatty acid synthase [5], 5.92 µM (active).

Turning to `C[C@@H]1CC=C[C@@H]2[C@H]1C(=O)N(Cc1ccccc1)[C@H]2c1cccc(C#Cc2ccccc2)c1`, the half-inhibitory concentration (IC50) in experiment [3] is 20 µM (active).

In the case of `COc1ccc([N+](=O)[O-])cc1NC(=O)C(C)NNC(=O)c1cccc([N+](=O)[O-])c1` (stereo not drawn), the IC50 was 12.7 µM (active) at Fatty acid synthase [4] and 10.7 µM (active) on Fatty acid synthase [5].

Take `O=C1/C(=C/Nc2cccc(O)c2)c2ccccc2C(=O)N1c1ccc2c(c1)OCO2`: the EC50 (in [1]; with H4; in [2]) was > 120 µM (not active) each time.

For `O=C(CCN1C(=O)/C(=C/c2ccc(Cl)cc2)SC1=S)Nc1cccc(C(=O)O)c1`, the IC50 in experiment [3] was 4.43 µM (active).

Turning to `Cc1nc2sc(C(=O)c3ccccc3)c(N)c2c2c1CCCC2`, the EC50 in [1] is > 120 µM (not active); in experiment [6] it was > 112 µM (not active); in [7], > 112 µM (not active); with H4, 10.5 µM (active); in [2], 6.25 µM (active).

Take `N#C/C(=C\c1c(N2CCC(C(N)=O)CC2)nc2ccccn2c1=O)S(=O)(=O)c1ccc(Cl)cc1`: the IC50 at Fatty acid synthase [4] is 17.1 µM (active); at Fatty acid synthase [5], 6.07 µM (active).

For `C=CCn1c(=S)[nH]c2cc(C(=O)N3CCN(c4ccccc4OC)CC3)ccc2c1=O`, the half-maximal inhibitory concentration (IC50) at Fatty acid synthase [4] was 17.6 µM (active); at Fatty acid synthase [5], 32.9 µM (inactive).

For the molecule `O=[N+]([O-])c1ccc(-c2c[nH]c(SCc3ccccc3Cl)n2)cc1`, the EC50 in [1] is > 120 µM (not active); in the experiment on H4, 17.5 µM (active); in experiment [2] it was 18.9 µM (active).

Turning to `COc1ccccc1/C=C(\NC(=O)c1ccc(OC)c(OC)c1)C(=O)Nc1cccc([N+](=O)[O-])c1`, the IC50 was 11.9 µM (active) at Fatty acid synthase [4] and 16 µM (active) at Fatty acid synthase [5].

In the case of `Cc1ccc(-c2n[nH]c(Cc3ccccc3)n2)cc1`, the EC50 in [1] was 0.105 µM (active); in the experiment on H4 it was 60.8 µM (active); in experiment [2], 2.44 µM (active).

In the case of `C[N+]1(C)CCc2cc3c(cc2[C@H]1[C@@H]1OC(=O)c2c1ccc1c2OCO1)OCO3`, the IC50 in [3] was 3.48 µM (active).

On to `CC(C)=C1C2CCC1C1C(=O)N(c3nc(-c4ccccc4)c(C)s3)C(=O)C21` (stereo not drawn), for which the IC50 in experiment [8] was 8.52 µM (not active). For the same molecule, the EC50 in [9] is > 260 µM (inactive).

For the molecule `CCS(=O)(=O)c1ccc(-c2csc(-c3ccccc3)n2)c(Cl)c1Cl`, the IC50 was 1.21 µM (active) at Fatty acid synthase [4] and 0.907 µM (active) at Fatty acid synthase [5].

The values above are taken from ChEMBL document CHEMBL1201862, “PubChem BioAssay data set” (2004).
